In patent US10206907B2, “Compounds useful for the treatment of degenerative and inflammatory diseases” (GALAPAGOS NV, priority 2008, dated 2019):
Where two headings read alike, the source gives them in different places.

Key:
[1] = Microsomal stability, human liver microsomes; format: in vitro ADME; conditions: percentage of compound remaining after 60 minutes, 3 μM compound
How it was run: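 Compound was incubated with liver microsomes plus an NADP+/glucose-6-phosphate/G6PDH/MgCl2 regenerating system at 37°C for 1 h. Reactions were stopped 1:1 with MeOH or ACN and analysed by LCMS.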

[2] = tested on: Collagen Induced Arthritis (CIA); experiment: Rat CIA model; format: in vivo; conditions: therapeutic dosing day 16 to day 30, p.o., statistical significance in several of the readouts
Experimental: Completed Freund's adjuvant (CFA) and incomplete Freund's adjuvant (IFA) were purchased from Difco. Bovine collagen type II (CII), lipopolysaccharide (LPS), and Enbrel were obtained from Chondrex (Isle d'Abeau, France); Sigma (P4252, L'Isle d'Abeau, France), Whyett (25 mg injectable syringe, France) Acros Organics (Palo Alto, Calif.), respectively. All other reagents used were of reagent grade and all solvents were of analytical grade.
Dark Agouti rats (male, 7-8 weeks old) were obtained from Harlan Laboratories (Maison-Alfort, France). Rats were kept on a 12 hours light/dark cycle (0700-1900). The temperature was maintained at 22° C., and food and water were provided ad libitum.
One day before the experiment, CII solution (2 mg/mL) was prepared with 0.05 M acetic acid and stored at 4° C. Just before the immunization, equal volumes of adjuvant (IFA) and CII were mixed by a homogenizer in a pre-cooled glass bottle in an ice water bath. Extra adjuvant and prolonged homogenization might be required if an emulsion is not formed. 0.2 mL of the emulsion was injected intradermally at the base of the tail of each rat on day 1, a second booster intradermal injection (CII solution at 2 mg/mL in CFA 0.1 mL saline) was performed on day 9. This immunization method was modified from published methods (Sims N A et al., (2004) Targeting osteoclasts with zoledronic acid prevents bone destruction in collagen-induced arthritis, Arthritis Rheum. 50 2338-2346; Jou et al., 2005).
The therapeutic effects of the test compounds were tested in the rat CIA model. Rats were randomly divided into equal groups and each group contained 10 rats. All rats were immunized on day 1 and boosted on day 9. Therapeutic dosing lasted from day 16 to day 30. The negative control group was treated with vehicle (MC 0.5%) and the positive control group with Enbrel (10 mg/kg, 3× week, s.c.). A compound of interest was typically tested at 3 doses, e.g. 3, 10, 30 mg/kg, p.o.
Arthritis was scored according the method of Khachigian 2006, Lin et al 2007 and Nishida et al. 2004. The swelling of each of the four paws was ranked with the arthritic score as follows: 0-no symptoms; 1-mild, but definite redness and swelling of one type of joint such as the ankle or wrist, or apparent redness and swelling limited to individual digits, regardless of the number of affected digits; 2-moderate redness and swelling of two or more types of joints; 3-severe redness and swelling of the entire paw including digits; 4-maximally inflamed limb with involvement of multiple joints (maximum cumulative clinical arthritis score 16 per animal) (Nishida et al., 2004).
Clinically, body weight loss is associated with arthritis (Shelton et al., 2005; Argiles et al., 1998; Rall, 2004; Walsmith et al., 2004). […] The change in body weight (%) after onset of arthritis was calculated as follows: […]
X-ray photos were taken of the hind paws of each individual animal. A random blind identity number was assigned to each of the photos, and the severity of bone erosion was ranked by two independent scorers with the radiological Larsen's score system as follows: 0-normal with intact bony outlines and normal joint space; 1—slight abnormality with any one or two of the exterior metatarsal bones showing slight bone erosion; 2—definite early abnormality with any three to five of the exterior metatarsal bones showing bone erosion; 3—medium destructive abnormality with all the exterior metatarsal bones as well as any one or two of the interior metatarsal bones showing definite bone erosions; 4—severe destructive abnormality with all the metatarsal bones showing definite bone erosion and at least one of the inner metatarsal joints completely eroded leaving some bony joint outlines partly preserved; 5—mutilating abnormality without bony outlines. This scoring system is a modification from Salvcmini et al., 2001; Bush et al., 2002; Sims et al., 2004; Jou et al., 2005. […]

[3] = biological target: Recombinant human JAK3 catalytic domain (Homo sapiens (Human), UniProt P52333); experiment: JAK3 inhibition assay; format: biochemical
Chain of Recombinant human JAK3 catalytic domain (P52333 781-1124): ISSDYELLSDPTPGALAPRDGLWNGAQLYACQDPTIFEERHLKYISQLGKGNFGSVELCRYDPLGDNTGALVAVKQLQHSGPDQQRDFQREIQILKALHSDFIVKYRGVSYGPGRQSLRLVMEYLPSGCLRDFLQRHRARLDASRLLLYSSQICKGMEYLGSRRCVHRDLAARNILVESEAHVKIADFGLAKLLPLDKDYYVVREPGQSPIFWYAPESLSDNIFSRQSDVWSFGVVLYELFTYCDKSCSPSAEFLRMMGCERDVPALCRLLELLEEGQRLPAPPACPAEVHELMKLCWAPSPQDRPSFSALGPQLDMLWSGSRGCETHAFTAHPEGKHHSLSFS

Row | SMILES | Microsomal Stability Human (%) [1] | efficacy in all readouts of the rat CIA study [2] | IC50 ([3]; semi-quantitative score) [nM] | IC50 [3] [nM]
1 | O=C(Nc1nc2cccc(-c3ccc(CN4CCOCC4)cc3)n2n1)C1CC1 [Compound 18, N-(5-(4-(morpholinomethyl)phenyl)-[1,2,4]triazolo[1,5-a]pyridin-2-yl)cyclopropanecarboxamide] | **** (**** 76-100) | efficacious in all readouts | > 1000 | –
2 | CC1CCCN(C(=O)c2ccc(-c3cccc4nc(NC(=O)C5CC5)nn34)cc2)C1 (centres unmarked) [Compound 145, N-(5-(4-(3-methylpiperidine-1-carbonyl)phenyl)-[1,2,4]triazolo[1,5-a]pyridin-2-yl)cyclopropanecarboxamide] | *** (*** 51-75) | efficacious in all readouts | – | –
3 | N#Cc1ccc(COc2ccc(-c3cccc4nc(NC(=O)C5CC5)nn34)cc2)cn1 [Compound 176, N-(5-(4-((6-cyanopyridin-3-yl)methoxy)phenyl)-[1,2,4]triazolo[1,5-a]pyridin-2-yl)cyclopropanecarboxamide] | **** (**** 76-100) | efficacious in all readouts | – | < 100
4 | CC1CN(C(=O)c2ccc(-c3cccc4nc(NC(=O)C5CC5)nn34)cc2)CC(C)O1 (centres unmarked) [Compound 215, Cyclopropanecarboxylic acid {5-[4-(2,6-dimethyl-morpholine-4-carbonyl)-phenyl]-[1,2,4]triazolo[1,5-a]pyridin-2-yl}-amide] | **** (**** 76-100) | efficacious in all readouts | < 100 | –
5 | CC1(C)CN(C(=O)c2ccc(-c3cccc4nc(NC(=O)C5CC5)nn34)cc2)C1 [Compound 330, Cyclopropanecarboxylic acid (5-[4-(3,3-dimethyl-azetidine-1-carbonyl)-phenyl]-[1,2,4]triazolo[1,5-a]pyridin-2-yl}-amide] | **** (**** 76-100) | efficacious in all readouts | 101 to 500 | –
